Literature values in patent US11136546B2, “Recombinant Escherichia coli and application of the same” (Zhengzhou Zhonghao Biological Technology Co., Ltd., priority 2018, dated 2021).
Where no end group is shown, it is not given here.

What was measured:
pathogenic E. coli = conditions: in vitro bacteriostatic tests; a variety of pathogenic E. coli
Salmonella = conditions: in vitro bacteriostatic tests

## Microcin J25: antibacterial lasso peptide consisting of 21 amino acids (SEQ ID No.: 4), obtained by fermentation of genetically engineered Escherichia coli (GGAGHVPEYFVGIGTPISFYG; also: lasso cyclisation, places not given here)
Pathogenic E. coli
  killing of pathogenic E. coli: able to kill
Salmonella
  killing of Salmonella: able to kill
